# From ChEMBL document CHEMBL1201862, “PubChem BioAssay data set” (2004)
# Calls of active or inactive are those of the source.
# Tests used:
# [1] = viability loss in human Jurkat cells – cell-based, luminescence, cytotoxicity control for P. falciparum gametocyte viability project, dose response (AID 1117277); type: functional;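 also: potency reflects loss of cellular ATP meaning fewer viable cells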
# [2] = viability inhibitors of stage V gametocytes – luminescence, dose response (AID 1117278); type: functional, cell-based;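 also: gametocytes exposed to compound for 24 hours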
# [3] = biological target: T1, Low molecular weight phosphotyrosine protein phosphatase (Homo sapiens, UniProt P24666); type: functional; conditions: read-out: IC50_Mean;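 also: Dose-response confirmation assay measuring inhibition of LMPTP enzyme activity by fluorescence intensity read-out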
# T1 sequence (P24666 whole entry): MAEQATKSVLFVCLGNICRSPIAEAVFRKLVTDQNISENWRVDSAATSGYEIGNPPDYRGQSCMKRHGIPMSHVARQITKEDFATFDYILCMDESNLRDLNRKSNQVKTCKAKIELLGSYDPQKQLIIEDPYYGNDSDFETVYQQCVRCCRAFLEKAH
# [4] = biological target: T2, Carboxy-terminal domain RNA polymerase II polypeptide A small phosphatase 1 (Homo sapiens, UniProt Q9GZU7); test: CTDSP1 inhibitors, concentration-response, biochemical, absorbance readout, ultra-high-throughput screen actives (AID 540297); type: functional
# T2 sequence (Q9GZU7 whole entry): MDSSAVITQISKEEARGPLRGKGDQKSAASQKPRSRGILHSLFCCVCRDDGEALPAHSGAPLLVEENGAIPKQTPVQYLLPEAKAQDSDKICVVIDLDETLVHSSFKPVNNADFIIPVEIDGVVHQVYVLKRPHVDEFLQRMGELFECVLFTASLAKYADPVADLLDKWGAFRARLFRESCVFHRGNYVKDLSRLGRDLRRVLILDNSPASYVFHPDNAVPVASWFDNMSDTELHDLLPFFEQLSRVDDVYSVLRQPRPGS
# [5] = biological target: NAD-dependent protein deacylase sirtuin-5, mitochondrial (Homo sapiens, UniProt Q9NXA8); test: sirtuin-5 deacylation blockers, concentration series – biochemical, fluorescence imaging, cherry-pick, set 5, dose response (AID 720591);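 also: desuccinylation of succinyl peptide AMC substrate read as fluorescence after trypsin release; potency of inhibitors that lower fluorescence and may act on trypsin instead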
# Chain of NAD-dependent protein deacylase sirtuin-5, mitochondrial (Q9NXA8 whole entry): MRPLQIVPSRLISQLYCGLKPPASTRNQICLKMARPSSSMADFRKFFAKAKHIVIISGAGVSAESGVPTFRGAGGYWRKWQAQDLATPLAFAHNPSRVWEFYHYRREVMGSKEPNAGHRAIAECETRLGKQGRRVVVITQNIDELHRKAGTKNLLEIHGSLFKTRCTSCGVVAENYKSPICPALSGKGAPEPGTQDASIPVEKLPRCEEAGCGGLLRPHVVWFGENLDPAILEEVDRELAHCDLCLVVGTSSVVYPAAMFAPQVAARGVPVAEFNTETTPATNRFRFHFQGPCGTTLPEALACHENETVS
# [6] = biological target: Diphosphomevalonate decarboxylase (Streptococcus pneumoniae serotype 2 (strain D39 / NCTC 7466), UniProt Q9FD53); test: diphosphomevalonate decarboxylase inhibitor confirmation – biochemical, cuvette format, coupled NADH fluorescence (AID 1028); type: functional
# Chain of Diphosphomevalonate decarboxylase (Q9FD53 whole entry): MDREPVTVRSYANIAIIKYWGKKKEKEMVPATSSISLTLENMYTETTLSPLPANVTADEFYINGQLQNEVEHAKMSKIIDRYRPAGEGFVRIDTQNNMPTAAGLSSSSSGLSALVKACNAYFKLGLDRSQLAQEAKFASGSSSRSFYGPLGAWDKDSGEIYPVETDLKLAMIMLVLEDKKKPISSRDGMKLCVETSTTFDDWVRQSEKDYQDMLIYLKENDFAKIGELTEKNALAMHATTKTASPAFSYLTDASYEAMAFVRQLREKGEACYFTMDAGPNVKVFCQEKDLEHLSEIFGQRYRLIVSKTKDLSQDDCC
# [7] = biological target: T3, Mannose-6-phosphate isomerase (Homo sapiens, UniProt P34949); test: MPI inhibition at elevated mannose 6-phosphate – biochemical, fluorescence intensity, high mannose 6-phosphate, primary screen (AID 1220)
# T3 sequence (P34949 whole entry): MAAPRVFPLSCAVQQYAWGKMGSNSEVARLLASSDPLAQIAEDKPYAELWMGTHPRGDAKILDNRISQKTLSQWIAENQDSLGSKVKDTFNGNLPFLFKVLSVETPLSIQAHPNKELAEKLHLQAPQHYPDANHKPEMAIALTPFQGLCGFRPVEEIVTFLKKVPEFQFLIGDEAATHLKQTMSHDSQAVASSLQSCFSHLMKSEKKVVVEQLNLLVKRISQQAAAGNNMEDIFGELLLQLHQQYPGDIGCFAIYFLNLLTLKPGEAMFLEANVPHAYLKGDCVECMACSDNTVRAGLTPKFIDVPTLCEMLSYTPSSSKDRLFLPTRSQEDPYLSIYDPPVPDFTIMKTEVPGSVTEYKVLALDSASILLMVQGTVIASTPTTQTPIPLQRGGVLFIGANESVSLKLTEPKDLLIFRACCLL
# [8] = biological target: E3 ubiquitin-protein ligase Mdm2 (Homo sapiens, UniProt Q00987); test: MDM2-luc reporter signal enhancers, multi-concentration potency testing, MDM2 ubiquitin-protein ligase inhibitor program, whole-cell format, luminescence detection, 384-well microplate (AID 1394); type: functional;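 also: MDM2 E3 inhibitors raise luminescence so EC50 is for signal enhancement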
# Chain of E3 ubiquitin-protein ligase Mdm2 (Q00987 whole entry): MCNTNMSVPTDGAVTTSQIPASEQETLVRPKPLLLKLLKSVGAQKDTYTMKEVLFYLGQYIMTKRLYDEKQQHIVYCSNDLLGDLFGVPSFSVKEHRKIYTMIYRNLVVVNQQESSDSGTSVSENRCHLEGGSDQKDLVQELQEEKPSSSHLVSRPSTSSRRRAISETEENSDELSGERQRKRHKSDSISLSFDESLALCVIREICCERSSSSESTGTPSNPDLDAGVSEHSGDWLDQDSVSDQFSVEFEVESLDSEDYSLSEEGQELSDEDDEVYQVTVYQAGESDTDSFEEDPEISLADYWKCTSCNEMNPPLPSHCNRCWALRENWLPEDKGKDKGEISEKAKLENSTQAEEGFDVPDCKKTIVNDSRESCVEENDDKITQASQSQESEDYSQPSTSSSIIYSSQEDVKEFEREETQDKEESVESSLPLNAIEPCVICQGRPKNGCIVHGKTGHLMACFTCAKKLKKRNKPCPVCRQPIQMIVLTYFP
# Vero = test: mammalian cell viability reduction – secondary assay, cytotoxicity control for West Nile virus antiviral project, dose response (AID 1650); type: functional; conditions: Chlorocebus sabaeus
# [9] = biological target: T4, Oxysterols receptor LXR-beta (Homo sapiens, UniProt P55055); test: LXR agonists, Gal4 luciferase reporter, dose response, counter-screen for ssDAF-12 agonist project, cell-based, luminescence, HEK293, S. stercoralis campaign (AID 720737); type: functional; conditions: read-out: IC50 (the source's name)
# T4 sequence (P55055 whole entry): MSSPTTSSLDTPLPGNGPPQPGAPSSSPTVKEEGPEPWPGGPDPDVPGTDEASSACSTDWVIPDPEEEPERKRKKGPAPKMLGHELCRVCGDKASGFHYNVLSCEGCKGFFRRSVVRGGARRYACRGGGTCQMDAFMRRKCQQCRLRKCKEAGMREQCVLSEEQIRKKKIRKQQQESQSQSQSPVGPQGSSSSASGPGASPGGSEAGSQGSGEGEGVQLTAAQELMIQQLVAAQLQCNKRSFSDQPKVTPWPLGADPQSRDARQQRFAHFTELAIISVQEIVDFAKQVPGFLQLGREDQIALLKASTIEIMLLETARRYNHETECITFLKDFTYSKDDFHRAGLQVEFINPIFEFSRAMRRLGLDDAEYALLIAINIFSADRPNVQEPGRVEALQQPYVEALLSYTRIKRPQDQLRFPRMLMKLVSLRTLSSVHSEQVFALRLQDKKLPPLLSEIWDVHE
# [10] = Luminescence-based cell-based high throughput dose response assay to identify activators of the DAF-12 from the parasite S. stercoralis (ssDAF-12).; type: functional
# [11] = Luminescence Cell-Based Dose Response to Identify Activators of 5'UTR Stem-Loop Driven Prion Protein mRNA Translation in H4-C Neuroglioblastoma Cells. [Related pubchem assays: 1829 (Project Summary), 1814 (Primary HTS)]; type: functional
# [12] = Luminescence Cell-Based Dose Response HTS to Identify Activators of Luciferase Translation or Activity in H4 […] Cells. [Related pubchem assays: 1829 (Project Summary), 1814 (Primary HTS)]; type: functional
# [13] = Luminescence Cell-Based Dose Response to Identify Activators of Luciferase Translation or Activity in H4-C Neuroglioblastoma Cells. [Related pubchem assays: 1829 (Project Summary), 1814 (Primary HTS)]; type: functional
# H4 = test: Luminescence Cell-Based Dose Response HTS to Identify Activators of 5'UTR Stem-Loop Driven Prion Protein mRNA Translation in H4 Neuroglioblastoma Cells. [Related pubchem assays: 1829 (Project Summary), 1814 (Primary HTS)]; type: functional; conditions: Homo sapiens
# [14] = Luminescence Cell-Based Dose Confirmation to Identify Activators of 5'UTR Stem-Loop Driven Alpha-Synuclein mRNA Translation in H4 Neuroglioblastoma Cells. [Related pubchem assays: 1829 (Project Summary), 1814 (Primary HTS)]; type: functional
# [15] = HIV-1 Vif–A3G interaction blockers – biochemical, TR-FRET, GST-Vif 1-94, biotin-A3G peptide, dose response retest, primary screen (AID 1117319); type: functional;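 also: TR-FRET signal of purified GST-Vif binding a biotinylated A3G peptide; inhibitors lower the FRET signal by blocking Vif and A3G binding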
# Fatty acid synthase [16] = biological target: T5, Fatty acid synthase (Homo sapiens, UniProt P49327); test: inhibition of human FAS-TE enzyme activity – biochemical, kinetic fluorescence intensity, dose response (AID 624326); type: functional;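 also: rate of fluorescence rise from hydrolysis of a fluorogenic O-methyl fluorescein ester substrate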
# T5 sequence (P49327 whole entry): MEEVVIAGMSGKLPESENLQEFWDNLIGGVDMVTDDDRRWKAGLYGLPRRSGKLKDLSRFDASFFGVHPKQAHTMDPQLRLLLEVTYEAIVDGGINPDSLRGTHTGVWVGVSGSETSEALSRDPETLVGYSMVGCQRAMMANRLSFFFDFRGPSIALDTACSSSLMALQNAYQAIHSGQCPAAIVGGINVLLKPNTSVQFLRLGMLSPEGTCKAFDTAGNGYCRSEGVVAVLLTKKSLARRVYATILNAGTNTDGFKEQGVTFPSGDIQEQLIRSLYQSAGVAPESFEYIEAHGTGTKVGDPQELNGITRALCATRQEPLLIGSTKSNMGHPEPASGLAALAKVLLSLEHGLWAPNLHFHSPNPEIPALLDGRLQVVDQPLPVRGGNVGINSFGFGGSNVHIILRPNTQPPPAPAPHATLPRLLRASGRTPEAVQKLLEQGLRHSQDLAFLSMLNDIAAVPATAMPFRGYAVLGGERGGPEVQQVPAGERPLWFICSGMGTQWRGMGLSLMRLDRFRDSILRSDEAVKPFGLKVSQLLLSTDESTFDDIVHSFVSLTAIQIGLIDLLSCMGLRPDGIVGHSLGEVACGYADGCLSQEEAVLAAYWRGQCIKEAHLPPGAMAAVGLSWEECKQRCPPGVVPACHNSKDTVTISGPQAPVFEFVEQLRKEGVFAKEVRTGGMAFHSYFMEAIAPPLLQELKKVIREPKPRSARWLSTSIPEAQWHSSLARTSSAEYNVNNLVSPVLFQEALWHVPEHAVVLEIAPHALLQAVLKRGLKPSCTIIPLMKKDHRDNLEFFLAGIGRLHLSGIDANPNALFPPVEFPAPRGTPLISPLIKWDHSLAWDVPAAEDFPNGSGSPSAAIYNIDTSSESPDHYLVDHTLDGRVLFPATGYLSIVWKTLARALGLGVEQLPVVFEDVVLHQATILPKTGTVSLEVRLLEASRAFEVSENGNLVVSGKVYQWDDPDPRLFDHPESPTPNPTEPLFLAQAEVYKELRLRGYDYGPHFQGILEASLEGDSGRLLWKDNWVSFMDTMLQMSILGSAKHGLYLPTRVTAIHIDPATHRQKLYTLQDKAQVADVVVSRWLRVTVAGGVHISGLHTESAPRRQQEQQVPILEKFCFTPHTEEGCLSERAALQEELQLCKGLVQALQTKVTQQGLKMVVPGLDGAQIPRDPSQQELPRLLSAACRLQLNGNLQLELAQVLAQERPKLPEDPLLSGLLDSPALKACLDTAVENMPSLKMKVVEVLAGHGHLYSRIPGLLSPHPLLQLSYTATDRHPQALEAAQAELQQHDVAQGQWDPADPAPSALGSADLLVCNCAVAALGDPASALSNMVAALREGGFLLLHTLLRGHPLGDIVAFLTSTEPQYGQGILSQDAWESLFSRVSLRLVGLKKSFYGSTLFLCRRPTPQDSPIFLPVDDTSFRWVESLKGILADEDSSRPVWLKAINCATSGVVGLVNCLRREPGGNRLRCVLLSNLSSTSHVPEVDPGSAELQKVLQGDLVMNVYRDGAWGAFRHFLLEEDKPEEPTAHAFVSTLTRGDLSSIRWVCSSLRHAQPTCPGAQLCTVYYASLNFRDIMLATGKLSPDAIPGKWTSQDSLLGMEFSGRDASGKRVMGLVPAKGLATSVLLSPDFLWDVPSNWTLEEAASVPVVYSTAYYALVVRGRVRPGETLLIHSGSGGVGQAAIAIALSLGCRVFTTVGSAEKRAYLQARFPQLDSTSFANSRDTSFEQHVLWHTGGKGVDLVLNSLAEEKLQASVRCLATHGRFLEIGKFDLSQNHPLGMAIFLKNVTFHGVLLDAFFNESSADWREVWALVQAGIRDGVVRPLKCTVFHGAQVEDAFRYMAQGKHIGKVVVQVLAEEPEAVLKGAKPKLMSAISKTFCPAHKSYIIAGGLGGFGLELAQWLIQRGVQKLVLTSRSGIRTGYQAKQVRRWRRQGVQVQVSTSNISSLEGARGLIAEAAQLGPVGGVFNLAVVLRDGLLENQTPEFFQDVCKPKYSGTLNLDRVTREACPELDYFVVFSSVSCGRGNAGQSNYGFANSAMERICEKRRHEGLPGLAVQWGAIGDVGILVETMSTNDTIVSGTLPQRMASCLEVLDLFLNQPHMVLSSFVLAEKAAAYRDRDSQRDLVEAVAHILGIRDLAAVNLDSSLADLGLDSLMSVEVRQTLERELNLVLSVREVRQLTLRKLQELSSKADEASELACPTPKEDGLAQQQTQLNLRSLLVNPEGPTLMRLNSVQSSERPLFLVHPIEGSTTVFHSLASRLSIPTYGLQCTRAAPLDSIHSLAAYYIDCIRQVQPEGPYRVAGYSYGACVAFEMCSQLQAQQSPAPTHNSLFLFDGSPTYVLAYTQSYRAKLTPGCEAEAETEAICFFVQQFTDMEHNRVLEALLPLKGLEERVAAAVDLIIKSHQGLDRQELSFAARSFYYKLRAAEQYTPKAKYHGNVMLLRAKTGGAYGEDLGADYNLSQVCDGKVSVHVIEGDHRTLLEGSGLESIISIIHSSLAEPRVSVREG
# Fatty acid synthase [17] = biological target: T5, Fatty acid synthase; test: inhibition of human FAS-TE enzyme activity – biochemical, endpoint fluorescence intensity, uHTS hits, dose response (AID 624327); type: functional;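 also: fluorescence from hydrolysis of an O-methyl fluorescein acyl ester substrate by the enzyme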
# [18] = P. falciparum Dd2 growth inhibitors, dose response, SYBR Green, cherry-picked samples (AID 1159567); type: functional, cell-based
# [19] = toxicity to human hepatoma HepG2 cells – cell-based, cherry-picked samples, cytotoxicity control, dose response (AID 1159577); type: functional
# [20] = biological target: RNA-editing ligase 1, mitochondrial (Trypanosoma brucei brucei, UniProt P86926); test: inhibition of trypanosome RNA editing ligase – biochemical, fluorescence, Trypanosoma brucei, dose response (AID 1117295); type: functional
# Chain of RNA-editing ligase 1, mitochondrial (P86926 whole entry): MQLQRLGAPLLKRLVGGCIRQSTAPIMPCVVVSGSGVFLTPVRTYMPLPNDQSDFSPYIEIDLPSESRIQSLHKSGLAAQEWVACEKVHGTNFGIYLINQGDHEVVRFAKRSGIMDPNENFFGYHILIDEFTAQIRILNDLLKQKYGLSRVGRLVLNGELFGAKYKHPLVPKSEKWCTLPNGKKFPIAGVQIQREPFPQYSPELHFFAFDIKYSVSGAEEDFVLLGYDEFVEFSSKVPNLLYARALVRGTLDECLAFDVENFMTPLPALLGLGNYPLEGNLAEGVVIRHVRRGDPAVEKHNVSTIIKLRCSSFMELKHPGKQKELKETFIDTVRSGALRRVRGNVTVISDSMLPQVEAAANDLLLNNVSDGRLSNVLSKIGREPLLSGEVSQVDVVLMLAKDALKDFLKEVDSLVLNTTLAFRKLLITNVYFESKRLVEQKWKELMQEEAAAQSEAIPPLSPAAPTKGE
# [21] = cytotoxicity toward HCT116 cells – cell-based, CellTiter-Glo luminescence, IC50, dose response (AID 1117332); type: functional; conditions: HCT-116
# [22] = cytotoxicity toward HT-29 cells – cell-based, CellTiter-Glo luminescence, IC50, dose response (AID 1117330); type: functional
# [23] = SNU-C1 cell viability reduction, dose response, CellTiter-Glo luminescence (AID 1117323); type: functional, cell-based
# [24] = cytotoxicity toward Colo320 cells – cell-based, CellTiter-Glo luminescence, IC50, dose response (AID 1117334); type: functional; conditions: COLO 320
# [25] = CellTiter-Glo luminescence survival assay, SW480 colon tumor line, concentration-response curve, half-maximal inhibitory concentration (AID 1117338); type: functional
# [26] = HCT116 cell viability decrease, GSK3B pretreatment – CellTiter-Glo, IC50, dose response (AID 1117339); type: functional; conditions: HCT-116
# [27] = Reduced DLD-1 viability, concentration-response, CellTiter-Glo luminescence (AID 1117352); type: functional
# [28] = RKO cell viability reduction, dose response, CellTiter-Glo luminescence (AID 1117322); type: functional
structure (smiles),measurement,setting,value
CCCn1c(SCC(=O)c2cc(OC)ccc2OC)nnc1-c1ccco1,IC50,[1],> 83.3 µM (inactive)
same,IC50,[2],> 109 µM (inactive)
CCSc1nnc(NC(=O)CSc2sc3c(O)cc(=O)[nH]c3c2C#N)s1,IC50,[3],49.5 µM (inactive)
same,IC50,[4],3.21 µM (active)
same,AC50,[5],> 30 µM (inactive)
O=C(NC1CC1)c1cccc(-n2sc3ccccc3c2=O)c1,IC50,[6],20.4 µM (active)
On1c2c(c3c4nonc4ccc31)CCCC2,IC50,[7],> 50 µM (not active)
Cc1cc(OC(=O)c2ccccc2)c([N+](=O)[O-])c(O)n1,EC50,[8],0.01 µM (not active)
CCN(c1ccc(C)c(C)c1)S(=O)(=O)c1ccc2c(c1)CCN2C(=O)CCC(=O)O,IC50,[1],> 83.3 µM (inactive)
same,IC50,[2],> 109 µM (inactive)
Cc1ccccc1NC(=O)c1cc(C(=O)c2cc(Cl)ccc2O)cn(-c2ccccc2C)c1=O,CC50,Vero,64.8 µM (active)
Cc1ccc(-c2cn3cccc(C)c3n2)cc1,EC50,[9],> 67.5 µM (inactive)
same,IC50,[10],> 67.5 µM (inactive)
Cc1nn(-c2nc3ccccc3s2)c(N)c1-c1ccccc1,EC50,[11],0.346 µM (active)
same,EC50,[12],< 0.1 µM (active)
same,EC50,[13],1.66 µM (active)
same,EC50,H4,> 120 µM (not active)
same,EC50,[14],0.277 µM (active)
CC(=O)Cc1nsc(Nc2ccc3c(c2)OCCO3)n1,IC50,[15],> 100 µM (active)
CN1CCN(C(=O)c2ccc(-n3sc4ccccc4c3=O)cc2)CC1,IC50,[6],25.8 µM (active)
COc1ccccc1-c1cc(SC)c(C#N)c(=O)o1,IC50,Fatty acid synthase [16],10.9 µM (active)
same,IC50,Fatty acid synthase [17],15.3 µM (active)
same,EC50,[8],11.1 µM (active)
CNc1cncc(-c2ccc(OC)c(OC)c2)n1,EC50,[9],> 67.6 µM (inactive)
same,IC50,[10],> 67.6 µM (inactive)
CCN(CC)CCN/C=C1\C(=O)CNC1=O,IC50,[15],> 100 µM (active)
COc1ccc(C#Cc2ccc([C@@H]3[C@H](CO)N4CCCCN(C(=O)Cc5ccccc5)C[C@@H]34)cc2)cc1,AC50,[18],1.42 µM (active)
same,AC50,[19],7.73 µM (active)
COCCCNC(=O)C1CCN(S(=O)(=O)c2ccc3[nH]c(=O)oc3c2)CC1,IC50,[20],42.4 µM (inactive)
CC(C)=CCCC(C)=CCCC(C)=CCCC=C(C)CCC=C(C)CCC=C(C)C,IC50,[21],> 20 µM (inactive)
same,IC50,[22],> 20 µM (inactive)
same,IC50,[23],> 20 µM (inactive)
same,IC50,[24],> 20 µM (inactive)
same,IC50,[25],> 20 µM (inactive)
same,IC50,[26],> 20 µM (inactive)
same,IC50,[27],> 20 µM (inactive)
same,IC50,[28],> 20 µM (inactive)
